pIC50: −log10 of the molar value. Values after ≈ are worked out from the molar mass of the structure shown.

The source of these data is ChEMBL document CHEMBL4321839, “Structure-activity relationships (SAR) of triazine derivatives: Promising antimicrobial agents” (Eur J Med Chem, 2020).

Data set [1] relates to Escherichia coli. The data set can be described thus: Antimicrobial activity against Escherichia coli ATCC 25922 assessed as reduction in microbial growth after 24 to 48 hrs by microdilution susceptibility test. Format: functional.
For data set [2], the system named is Staphylococcus aureus. The data set can be described thus: Antimicrobial activity against Staphylococcus aureus […] assessed as reduction in microbial growth after 24 to 48 hrs by microdilution susceptibility test. Format: functional.
A short description of data set [3]: Cytotoxicity against African green monkey Vero cells incubated for 72 hrs by MTT assay. Particulars: chlorocebus sabaeus. Format: cell-based.
Data set [4] concerns Escherichia coli. The data set can be described thus: Antimicrobial activity against multi drug-resistant Escherichia coli assessed as reduction in microbial growth after 24 to 48 hrs by microdilution susceptibility test. Format: functional.
In data set [5] the test system is Staphylococcus aureus. The data set can be described thus: Antimicrobial activity against methicillin-resistant Staphylococcus aureus assessed as reduction in microbial growth after 24 to 48 hrs by microdilution susceptibility test. Format: functional.
The test system of the next data set is Aspergillus clavatus. The data set can be described thus: Antifungal activity against Aspergillus clavatus MTCC 1323 assessed as reduction in microbial growth after 48 hrs by broth dilution method. Format: functional. Particulars: MTCC 1323, 48 h.
Data set [6] relates to Staphylococcus aureus. The data set can be described thus: Antimicrobial activity against Staphylococcus aureus NCIM-2079 assessed as reduction in microbial growth after 24 hrs by CLSI based broth dilution method. Format: functional. To be noted: NCIM-2079, 24 h.
Another data set relates to Proteus vulgaris. The data set can be described thus: Antimicrobial activity against Proteus vulgaris NCIM-2027 assessed as reduction in microbial growth after 24 hrs by CLSI based broth dilution method. Format: functional. To be noted: NCIM-2027, 24 h.
For data set [7], the system named is Bacillus cereus. The data set can be described thus: Antimicrobial activity against Bacillus cereus NCIM-2156 assessed as reduction in microbial growth after 24 hrs by CLSI based broth dilution method. To be noted: NCIM-2156, 24 h. Format: functional.
Another data set concerns Bacillus subtilis. The data set can be described thus: Antimicrobial activity against Bacillus subtilis NCIM-2063 assessed as reduction in microbial growth after 24 hrs by CLSI based broth dilution method. Format: functional. Particulars: NCIM-2063, 24 h.
For data set [8], the system named is Escherichia coli. The data set can be described thus: Antimicrobial activity against Escherichia coli NCIM-2065 assessed as reduction in microbial growth after 24 hrs by CLSI based broth dilution method. Format: functional. To be noted: NCIM-2065, 24 h.
In data set [9] the test system is Staphylococcus aureus. In words: Antimicrobial activity against Staphylococcus aureus assessed as zone of inhibition at 1000 to 10000 ppm after 48 hrs. Format: functional.
The test system of data set [10] is Staphylococcus aureus. In words: Antimicrobial activity against methicillin-resistant Staphylococcus aureus MW2 assessed as reduction in microbial growth after 18 hrs by broth microdilution method. Format: functional. To be noted: MW2, 18 h.
For the next data set, the system named is Enterococcus faecium. The data set can be described thus: Antimicrobial activity against Enterococcus faecium ATCC E007 assessed as reduction in microbial growth after 18 hrs by broth microdilution method. Format: functional. To be noted: ATCC E007, 18 h.
The subject of data set [11] is Staphylococcus aureus. In words: Antimicrobial activity against methicillin-resistant Staphylococcus aureus CCARM 3167 assessed as reduction in microbial growth by serial dilution method. Format: functional.
Data set [12] relates to Staphylococcus aureus. In words: Antimicrobial activity against methicillin-resistant Staphylococcus aureus CCARM 3506 assessed as reduction in microbial growth by serial dilution method. Format: functional.
Data set [13] has as its system Staphylococcus aureus. The data set can be described thus: Antimicrobial activity against quinolone-resistant Staphylococcus aureus CCARM 3505 assessed as reduction in microbial growth by serial dilution method. Format: functional.
Data set [14] concerns Staphylococcus aureus. In words: Antimicrobial activity against quinolone-resistant Staphylococcus aureus CCARM 3519 assessed as reduction in microbial growth by serial dilution method. Format: functional.
A further data set relates to HepG2. The data set can be described thus: Cytotoxicity against human HepG2 cells. Format: cell-based.
In another data set the test system is Lacticaseibacillus casei. In words: Antibacterial activity against Lactobacillus casei NCIM-2651 assessed as reduction in microbial growth incubated for 24 hrs by broth dilution method. Format: functional. Particulars: NCIM-2651, 24 h.
The test system of data set [15] is Bacillus cereus. In words: Antibacterial activity against Bacillus cereus NCIM-2458 assessed as reduction in microbial growth incubated for 24 hrs by broth dilution method. Format: functional. To be noted: NCIM-2458, 24 h.
Data set [16] concerns Escherichia coli. The data set can be described thus: Antimicrobial activity against Escherichia coli after 24 hrs by agar well diffusion assay. Format: functional.
Data set [17] concerns Staphylococcus aureus. The data set can be described thus: Antimicrobial activity against Staphylococcus aureus MTCC 96 assessed as reduction in microbial growth after 24 hrs by broth dilution method. Format: functional. Particulars: MTCC 96, 24 h.
The next data set has as its system Proteus mirabilis. In words: Antimicrobial activity against Proteus mirabilis assessed as zone of inhibition after 18 hrs by disk diffusion method. Format: functional.
Data set [18] relates to Staphylococcus aureus. In words: Antimicrobial activity methicillin-resistant against Staphylococcus aureus. Format: functional.

As to `O=C(O)c1ccc(Nc2nc(Cl)nc(N3CCCCC3)n2)cc1`, the MIC with Escherichia coli [1] amounted to 25 µg/mL; in the data set with Staphylococcus aureus [2], 25 µg/mL; with Escherichia coli [4], 25 µg/mL; with Staphylococcus aureus [5] it was 100 µg/mL. The compound also had a CC50 at 72 h in data set [3] of 125 µg/mL (≈ 374 µM).
For `COc1nc(Sc2ccc(Cl)cc2)nc(-c2ccc(C#N)cc2)n1`, the minimal inhibitory concentration (MIC) in the data set with Aspergillus clavatus was found to be 3.12 µg/mL.
For `O=C1CSC(c2ccc([N+](=O)[O-])cc2)N1c1nc(Nc2ccc([N+](=O)[O-])cc2)nc(Nc2ccc([N+](=O)[O-])cc2)n1` (configuration not stated), the MIC in the data set with Staphylococcus aureus [6], in the data set on Proteus vulgaris, with Bacillus cereus [7], with Bacillus subtilis and in the data set with Escherichia coli [8] was 1.95 to 15.6 µg/mL each time.
With `Cc1c(C(=O)NNc2ccccc2)nnc2c3c(-c4ccccc4)c(-c4ccccc4)nnc3nn12`, in the data set with Staphylococcus aureus [9], the “inhibition zone (IZ)” value amounted to 4 mm.
On to `CC(C)(C)Nc1nc(NN)nc(NC(C)(C)C)n1`, for which the MIC in the data set with Staphylococcus aureus [10] and in the data set with Enterococcus faecium was 8 µg/mL in each case.
On to `O=C(O)c1ccc(Nc2nc(Cl)nc(NCc3ccccc3)n2)cc1`, for which the MIC in the data set with Escherichia coli [1] was 50 µg/mL; in the data set with Staphylococcus aureus [2], 12.5 µg/mL; in the data set with Escherichia coli [4], 100 µg/mL; in the data set with Staphylococcus aureus [5] it was 25 µg/mL. The compound further showed a CC50 at 72 h in data set [3] of 225 µg/mL (≈ 632 µM).
Consider `NC1=NC(c2ccc3cc(OCc4ccc(Cl)cc4Cl)ccc3c2)N=C(N2CCOCC2)N1` (configuration not stated), for which the MIC in the data set with Staphylococcus aureus [11], in the data set on Staphylococcus aureus [12], with Staphylococcus aureus [13] and in the data set with Staphylococcus aureus [14] was 2.1 µM in each case. Further, the pIC50 with HepG2 was 4.46.
With `Nc1nc(Nc2ccccc2)nc(Nc2nc(-c3ccc(Cl)c(Cl)c3)cs2)n1`, the MIC in the data set with Lacticaseibacillus casei and with Bacillus cereus [15] was 3.12 µg/mL each time.
`Clc1nc2nc(n1)Oc1ccc3ccccc3c1Cc1c(ccc3ccccc13)Oc1nc(Cl)nc(n1)OCc1cccc(n1)CO2` displayed a minimum inhibitory concentration (MIC) in the data set on Escherichia coli [16] of 50 µg/mL (≈ 75.5 µM).
For `CC(=O)c1nnc2c3c(-c4ccccc4)c(-c4ccccc4)nnc3nn2c1C`, in the data set with Staphylococcus aureus [9], the “inhibition zone (IZ)” value turned out to be 44 mm.
Consider `COc1nc(Sc2ccc(F)cc2)nc(-c2ccc(C#N)cc2)n1`, for which, in the data set with Staphylococcus aureus [17], the MIC came out at 3.12 µg/mL.
`CC1(C)c2ccccc2Oc2nc(Cl)nc(n2)OCc2cccc(n2)COc2nc(Cl)nc(n2)Oc2ccccc21` registered an MIC in the data set with Escherichia coli [16] of 50 µg/mL (≈ 84.7 µM).
On to `O=C(O)c1cn(C2CC2)c2cc(N3CCNCC3)c(F)cc2c1=O` [CIPROFLOXACIN], for which the “inhibition zone (IZ)” value in the data set with Proteus mirabilis is given as 22 mm. Also, in the data set with Staphylococcus aureus [18], the MIC was found to be 4 µg/mL (≈ 12.1 µM).
